# Assay results taken from patent publication US20230122344A1, “ANTAGONISTS OF THE MUSCARINIC ACETYLCHOLINE RECEPTOR M4” (Vanderbilt University, priority 2019, published 2023).
# Target: T1, Human M4 (Homo sapiens, UniProt P08173)
# T1 construct: expressed in transfected cells; host or cells: CHO-K1 (ATCC), co-transfected with chimeric G protein Gqi5
# T1 sequence (P08173 1-479): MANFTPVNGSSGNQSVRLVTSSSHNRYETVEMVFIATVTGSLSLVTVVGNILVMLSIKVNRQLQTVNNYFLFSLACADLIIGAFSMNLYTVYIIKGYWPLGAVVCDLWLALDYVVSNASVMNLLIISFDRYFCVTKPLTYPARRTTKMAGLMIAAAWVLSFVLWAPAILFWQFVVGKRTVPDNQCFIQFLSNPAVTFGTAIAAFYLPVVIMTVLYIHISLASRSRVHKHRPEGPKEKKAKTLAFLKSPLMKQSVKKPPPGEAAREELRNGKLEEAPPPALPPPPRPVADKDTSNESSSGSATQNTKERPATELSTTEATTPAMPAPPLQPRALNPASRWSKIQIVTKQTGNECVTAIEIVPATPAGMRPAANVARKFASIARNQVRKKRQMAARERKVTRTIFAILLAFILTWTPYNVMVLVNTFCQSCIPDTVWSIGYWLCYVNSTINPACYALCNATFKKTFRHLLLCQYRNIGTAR
# Test: mAChR M4 cell-based functional assay (calcium flux, antagonism of EC80 acetylcholine response)
# Conditions: M4/Gqi5/CHO-K1 cells; for remaining activity at 30 µM: CHO-K1, % ACh maximum at 30 μM, read-out: Human M4 Emin; for IC50: decrease of response elicited by EC80 acetylcholine
# How it was run: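 CHO-K1 cells stably expressing human or rat M4 with Gqi5, Fluo-4 loaded; calcium measured by fluorescence ratio on FDSS. Compound added, then EC20 acetylcholine at 143 s and EC80 at 268 s; IC50 from decrease of EC80 response, four-parameter logistic fit.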
remaining activity at 30 µM,IC50,Human M4 Emin (% ACh maximum at 30 μM),SMILES
3%,8.42 nM,–,"Cc1c(-c2cccc(F)c2)nnc(N[C@H]2C[C@@H]3CN(CC4CCOCC4)C[C@@H]3C2)c1C#N [compound 69, 6-(3-fluorophenyl)-5-methyl-3-(((3aR,5s,6aS)-2-((tetrahydro-2H-pyran-4-yl)methyl)octahydrocyclopenta[c]pyrrol-5-yl)amino)pyridazine-4-carbonitrile]"
5%,0.14 nM,–,"Cc1cc(N[C@H]2C[C@@H]3CN(CC4CCOCC4)C[C@@H]3C2)nnc1-c1cc(F)ccc1F [compound 13, (3aR,5s,6aS)-N-(6-(2,5-difluorophenyl)-5-methylpyridazin-3-yl)-2-((tetrahydro-2H-pyran-4-yl)methyl)octahydrocyclopenta[c]pyrrol-5-amine]"
3%,0.89 nM,–,"Cc1c(-c2cc(C(F)F)c(N[C@H]3C[C@@H]4CN(CC5CCOCC5)C[C@@H]4C3)nn2)ccc2nn(C)cc12 [compound 84, (3aR,5s,6aS)-N-(4-(difluoromethyl)-6-(2,4-dimethyl-2H-indazol-5-yl)pyridazin-3-yl)-2-((tetrahydro-2H-pyran-4-yl)methyl)octahydrocyclopenta[c]pyrrol-5-amine]"
5%,10.8 nM,–,"COc1cc(-c2cccc(F)c2)nnc1N[C@H]1C[C@@H]2CN(CC3CCOCC3)C[C@@H]2C1 [compound 1, (3aR,5s,6aS)-N-(6-(3-fluorophenyl)-4-methoxypyridazin-3-yl)-2-((tetrahydro-2H-pyran-4-yl)methyl)octahydrocyclopenta[c]pyrrol-5-amine]"
4%,1.63 nM,–,"[2H]C([2H])(C1CCOCC1)N1C[C@H]2C[C@H](Nc3nnc(-c4ccccc4)cc3C)C[C@H]2C1 [compound 24, (3aR,5s,6aS)-N-(4-methyl-6-phenylpyridazin-3-yl)-2-((tetrahydro-2H-pyran-4-yl)methyl-d2)octahydrocyclopenta[c]pyrrol-5-amine]"
2%,0.67 nM,–,"COc1ccc(F)cc1-c1nnc(N[C@H]2C[C@@H]3CN(CC4CCOCC4)C[C@@H]3C2)cc1C(F)F [compound 42, (3aR,5s,6aS)-N-(5-(difluoromethyl)-6-(5-fluoro-2-methoxyphenyl)pyridazin-3-yl)-2-((tetrahydro-2H-pyran-4-yl)methyl)octahydrocyclopenta[c]pyrrol-5-amine]"
2%,0.71 nM,–,"[2H]C([2H])(C1CCOCC1)N1C[C@H]2C[C@H](Nc3nnc(-c4cccc(F)c4)c(C)c3C)C[C@H]2C1 [compound 62, (3aR,5s,6aS)-N-(6-(3-fluorophenyl)-4,5-dimethylpyridazin-3-yl)-2-((tetrahydro-2H-pyran-4-yl)methyl-d2)octahydrocyclopenta[c]pyrrol-5-amine]"
5%,19 nM,–,"FC(F)c1cc(-c2ccccc2OC(F)(F)F)nnc1N[C@H]1C[C@@H]2CN(CC3CCOCC3)C[C@@H]2C1 [compound 86, (3aR,5s,6aS)-N-(4-(difluoromethyl)-6-(2-(trifluoromethoxy)phenyl)pyridazin-3-yl)-2-((tetrahydro-2H-pyran-4-yl)methyl)octahydrocyclopenta[c]pyrrol-5-amine]"

# Continued, compound first:
SMILES,remaining activity at 30 µM,IC50,Human M4 Emin (% ACh maximum at 30 μM)
"Fc1cc(F)c(F)c(-c2nnc(N[C@H]3C[C@@H]4CN(CCC5CCOCC5)C[C@@H]4C3)cc2C(F)F)c1 [compound 52, (3aR,5s,6aS)-N-(5-(difluoromethyl)-6-(2,3,5-trifluorophenyl)pyridazin-3-yl)-2-(2-(tetrahydro-2H-pyran-4-yl)ethyl)octahydrocyclopenta[c]pyrrol-5-amine]",2%,1.05 nM,–
"Cc1cc(N[C@H]2C[C@@H]3CN(CC4CCOCC4)C[C@@H]3C2)nnc1-c1ccc2nn(C)cc2c1 [compound 15, (3aR,5s,6aS)-N-(5-methyl-6-(2-methyl-2H-indazol-5-yl)pyridazin-3-yl)-2-((tetrahydro-2H-pyran-4-yl)methyl)octahydrocyclopenta[c]pyrrol-5-amine]",3%,1.1 nM,–
"Cc1c(-c2cc(F)ccc2F)nnc(N[C@H]2C[C@@H]3CN(C[C@H]4CC5CCC4O5)C[C@@H]3C2)c1C#N (stereo partly drawn) [compound 66, 3-(((3aR,5s,6aS)-2-(((2R)-7-oxabicyclo[2.2.1]heptan-2-yl)methyl)octahydrocyclopenta[c]pyrrol-5-yl)amino)-6-(2,5-difluorophenyl)-5-methylpyridazine-4-carbonitrile]",3%,17.9 nM,–
"Fc1cc(F)c(F)c(-c2nnc(N[C@H]3C[C@@H]4CN(CC5CCCCO5)C[C@@H]4C3)cc2C(F)F)c1 (single isomer, unassigned) [compound 47]",–,2.02 nM,2%
"Fc1cc(F)c(F)c(-c2nnc(N[C@H]3C[C@@H]4CN(C[C@@H]5COCCO5)C[C@@H]4C3)cc2C(F)F)c1 [compound 56, (3aR,5s,6aS)-2-(((R)-1,4-dioxan-2-yl)methyl)-N-(5-(difluoromethyl)-6-(2,3,5-trifluorophenyl)pyridazin-3-yl)octahydrocyclopenta[c]pyrrol-5-amine]",2%,0.66 nM,–
"[2H]C([2H])(C1CCOCC1)N1C[C@H]2C[C@H](Nc3cc(C)c(-c4ccc5nn(C)cc5c4)nn3)C[C@H]2C1 [compound 19, (3aR,5s,6aS)-N-(5-methyl-6-(2-methyl-2H-indazol-5-yl)pyridazin-3-yl)-2-((tetrahydro-2H-pyran-4-yl)methyl-d2)octahydrocyclopenta[c]pyrrol-5-amine]",4%,1.62 nM,–
"Fc1cc(F)c(F)c(-c2nnc(N[C@H]3C[C@@H]4CN(CC5CCCCC5)C[C@@H]4C3)cc2C(F)F)c1 [compound 53, (3aR,5s,6aS)-2-(cyclohexylmethyl)-N-(5-(difluoromethyl)-6-(2,3,5-trifluorophenyl)pyridazin-3-yl)octahydrocyclopenta[c]pyrrol-5-amine]",2%,19.1 nM,–
"[2H]C([2H])(C1CCOCC1)N1C[C@H]2C[C@H](Nc3nnc(-c4cc(F)cc(F)c4F)c(C4CC4)c3C(F)(F)F)C[C@H]2C1 [compound 77, (3aR,5s,6aS)-N-(5-cyclopropyl-4-(trifluoromethyl)-6-(2,3,5-trifluorophenyl)pyridazin-3-yl)-2-((tetrahydro-2H-pyran-4-yl)methyl-d2)octahydrocyclopenta[c]pyrrol-5-amine]",2%,83.5 nM,–
